| melting point [°C] | Structure (SMILES) |
| --- | --- |
| 205 to 210 | COc1cc2c(-c3cc4cc(F)cnc4[nH]3)cn(CCN3CCOCC3)c2cc1OC [Example 105, 2-[5,6-dimethoxy-1-(2-morpholin-4-ylethyl)-1H-indol-3-yl]-5-fluoro-1H-pyrrolo[2,3-b]pyridine] |
| 283 | COc1cc2c(-c3cc4cc(F)cnc4[nH]3)cn(C)c2cc1OC [Example 104, 2-(5,6-dimethoxy-1-methyl-1H-indol-3-yl)-5-fluoro-1H-pyrrolo[2,3-b]pyridine] |
| 192 | COc1cc2c(-c3cc4cc(Cl)cnc4[nH]3)cn(C)c2cc1OC [Example 103, 5-chloro-2-(5,6-dimethoxy-1-methyl-1H-indol-3-yl)-1H-pyrrolo[2,3-b]pyridine] |
| 192 | COc1cc2c(-c3cc4c(Cl)ccnc4[nH]3)cn(CCN3CCN(C)CC3)c2cc1OC [Example 101, 4-chloro-2-{5,6-dimethoxy-1-[2-(4-methylpiperazin-1-yl)ethyl]-1H-indol-3-yl}-1H-pyrrolo[2,3-b]pyridine] |
| 200 | COc1cc2c(-c3cc4c(Cl)ccnc4[nH]3)cn(CCN3CCC(CCO)CC3)c2cc1OC [Example 100, 2-(1-{2-[3-(4-chloro-1H-pyrrolo[2,3-b]pyridin-2-yl)-5,6-dimethoxyindol-1-yl]ethyl}piperidin-4-yl)ethanol] |
| 196 | COc1cc2c(-c3cc4c(C#N)ccnc4[nH]3)cn(CCN3CCN(C)CC3)c2cc1OC [Example 102, 2-{5,6-dimethoxy-1-[2-(4-methylpiperazin-1-yl)ethyl]-1H-indol-3-yl}-1H-pyrrolo[2,3-b]pyridine-4-carbonitrile] |
| 240 | COc1cc2c(-c3cc4c(Cl)ccnc4[nH]3)cn(CCN3CCOCC3)c2cc1OC [Example 99, 4-chloro-2-[5,6-dimethoxy-1-(2-morpholin-4-ylethyl)-1H-indol-3-yl]-1H-pyrrolo[2,3-b]pyridine] |
| 220 | COc1cc(OC)c2c(c1)c(-c1cc3cccnc3[nH]1)cn2C [Example 175, 2-(5,7-Dimethoxy-1-methyl-1H-indol-3-yl)-1H-pyrrolo[2,3-b]pyridine] |
| 188 | COc1cc2c(-c3cc4cc(F)cnc4[nH]3)cn(CCN3CCN(C)CC3)c2cc1OC [Example 106, 2-{5,6-Dimethoxy-1-[2-(4-methylpiperazin-1-yl)ethyl]-1H-indol-3-yl}-5-fluoro-1H-pyrrolo[2,3-b]pyridine] |

Source: patent US7968566B2, “Pyrrolo(2,3-b) pyridine derivatives, the preparation and the pharmaceutical use thereof in the form of kinase inhibitors” (Aventis Pharma S.A., priority 2004, dated 2011)
